Values of other authors, collected in patent US20060127459A1, “Urogenital infection inhibition” (priority 2004, published 2006).

Test system: pathogen adherence to epithelium cells
Settings: positive control, shown in U.S. patent application Ser. No. 10/401,522

## Hyaluronic acid (HLA) potassium salt
  pathogen adherence to epithelium cells: inhibit pathogen adherence
